Laboratory results: patent US20240376123A1, “KRAS G12D INHIBITORS AND USES THEREOF” (SUZHOU ZANRONG PHARMA LIMITED, priority 2021, published 2024)

These compounds were tested on p-ERK in PNAC-1/HPAC cell (assay: Phospho-ERK 1/2 assay (Table 1)). Settings: Homo sapiens, HPAC, 3 h, read-out: p-ERK IC50, PNAC-1/HPAC cell, 3 hours compound incubation.
Format: cell-based
Protocol: Allow PNAC-1/HPAC cell growth in a T75 flask in DMEM and 10% 1 fetal calf serum (FCS; Gibco), using standard tissue culture procedures until ˜80% confluency is achieved. Day 1, seed 6000 cells/well in 384 well plate and incubate at 37° C., 5% CO2. Add diluted compound by Echo 550, final DMSO is 0.5%, incubate cells at 37° C., 5% CO2 for 3 hours. Then, remove medium and fix cells with 3.7% formaldehyde in PBS (PFA) by Apricot. Wash with PBS once. Permeabilize cells with cold 100% methanol and repeat wash once with PBS once. Add Li-Cor blocking buffer to each well and incubate 1.5 hours at RT. Remove blocking buffer and add primary antibody mixture (rabbit anti pERK, mouse anti GAPDH). Incubate at 4° C. overnight. Day 2, wash with PBST (Tween-20 in PBS) with total 3 times and then add secondary antibody mixture (goat anti rabbit 800CW (1:800 dilution in the combined solution) and goat anti mouse 680RD (1:800 dilution in the combined solution)), incubate for 60 minutes at RT away from light. Repeat washing with PBST 3 times. After final wash, centrifuge plate up-side-down at 1000 rpm to remove wash solution completely from wells. Before plate scanning, clean the bottom plate surface and the Odyssey* Imager scanning bed (if applicable) with moist, lint-free tissue to avoid any obstructions during scanning. Scan plate with detection in both 700 and 800 nm channels.

Q: For `C#Cc1c(F)ccc2cccc(-c3nc4c5c(nc(OCC67CCCN6C(COC(=O)N(C)C)CC7)nc5c3F)N3CC5CCC(N5)[C@H]3CO4)c12` (stereo in doubt) [Compound 37, (7a-((((5aS,6R,9S)-2-(8-ethynyl-7-fluoronaphthalen-1-yl)-1-fluoro-5a,6,7,8,9,10-hexahydro-5H-4-oxa-3,10a,11,13,14-pentaaza-6,9-methanonaphtho[1,8-ab]heptalen-12-yl)oxy)methyl)hexahydro-1H-pyrrolizin-3-yl)methyl dimethylcarbamate], which IC50 is on record?
A: The IC50 was 50 nM.

Same assay, conditions: Homo sapiens; PNAC-1/HPAC cell, 3 hours compound incubation; read-out: p-ERK IC50

Q: How did the IC50 turn out when `Fc1ccc2cccc(-c3nc4c5c(nc(OC[C@@]67CCCN6C[C@H](F)C7)nc5c3F)N3C[C@@H]5CC[C@@H](N5)C3CO4)c2c1F` (stereo partly drawn) [Compound 14, (6R,9S)-2-(7,8-difluoronaphthalen-1-yl)-1-fluoro-12-(((2R,7aS)-2-fluorotetrahydro-1H-pyrrolizin-7a(5H)-yl)methoxy)-5a,6,7,8,9,10-hexahydro-5H-4-oxa-3,10a,11,13,14-pentaaza-6,9-methanonaphtho[1,8-ab]heptalene] was run?
A: The IC50 was 141 nM.

Q: `C#Cc1c(F)ccc2cc(O)cc(-c3nc4c5c(nc(OC[C@@]67CCCN6C[C@H](F)C7)nc5c3F)N3C[C@@H]5CC[C@@H](N5)C3CO4)c12` (stereo partly drawn) [Compound 7, 5-ethynyl-6-fluoro-4-((6R,9S)-1-fluoro-12-(((2R,7aS)-2-fluorotetrahydro-1H-pyrrolizin-7a(5H)-yl)methoxy)-5a,6,7,8,9,10-hexahydro-5H-4-oxa-3,10a,11,13,14-pentaaza-6,9-methanonaphtho[1,8-ab]heptalen-2-yl)naphthalen-2-ol] was tested. Which IC50 did it give?
A: The IC50 was 34 nM.

Q: For `Oc1cc(-c2nc3c4c(nc(OC[C@@]56CCCN5C[C@H](F)C6)nc4c2F)N2C[C@@H]4CC[C@@H](N4)C2CO3)c2c(F)cccc2c1` (stereo partly drawn) [Compound 6, 5-fluoro-4-((6R,9S)-1-fluoro-12-(((2R,7aS)-2-fluorotetrahydro-1H-pyrrolizin-7a(5H)-yl)methoxy)-5a,6,7,8,9,10-hexahydro-5H-4-oxa-3,10a,11,13,14-pentaaza-6,9-methanonaphtho[1,8-ab]heptalen-2-yl)naphthalen-2-ol], which IC50 is on record?
A: Its IC50 is 86 nM.

Q: With `Fc1c(-c2cccc3cccc(F)c23)nc2c3c(nc(OC[C@@]45CCCN4C[C@H](F)C5)nc13)N1C[C@@H]3CC[C@@H](N3)C1CO2` (stereo partly drawn) [Compound 15, (6R,9S)-1-fluoro-2-(8-fluoronaphthalen-1-yl)-12-(((2R,7aS)-2-fluorotetrahydro-1H-pyrrolizin-7a(5H)-yl)methoxy)-5a,6,7,8,9,10-hexahydro-5H-4-oxa-3,10a,11,13,14-pentaaza-6,9-methanonaphtho[1,8-ab]heptalene] as the compound, how does the IC50 read?
A: Its IC50 is 221 nM.

Q: Which IC50 does the source give for `C#Cc1c(F)ccc2cccc(-c3nc4c5c(nc(OC[C@@]67CCCN6C[C@H](F)C7)nc5c3F)N3CC5CCC(N5)[C@@H]3CO4)c12` (single isomer, unassigned) [Compound 9] here?
A: Its IC50 is 308 nM.

Q: With `Oc1cc(-c2nc3c4c(nc(OC[C@@]56CCCN5C[C@H](F)C6)nc4c2F)N2C[C@@H]4CC[C@@H](N4)C2CO3)c2cc(F)ccc2c1` (stereo partly drawn) [Compound 3, 6-fluoro-4-((6R,9S)-1-fluoro-12-(((2R,7aS)-2-fluorotetrahydro-1H-pyrrolizin-7a(5H)-yl)methoxy)-5a,6,7,8,9,10-hexahydro-5H-4-oxa-3,10a,11,13,14-pentaaza-6,9-methanonaphtho[1,8-ab]heptalen-2-yl)naphthalen-2-ol] as the compound, how does the IC50 read?
A: Its IC50 is 26 nM.

Q: For `C#Cc1c(F)ccc2cccc(-c3nc4c5c(nc(OCC6(CN7CCOC8(CC8)C7)CC6)nc5c3F)N3CC5CCC(N5)[C@H]3CO4)c12` (stereo in doubt) [Compound 46, (5aS,6R,9S)-12-((1-((4-oxa-7-azaspiro[2.5]octan-7-yl)methyl)cyclopropyl)methoxy)-2-(8-ethynyl-7-fluoronaphthalen-1-yl)-1-fluoro-5a,6,7,8,9,10-hexahydro-5H-4-oxa-3,10a,11,13,14-pentaaza-6,9-methanonaphtho[1,8-ab]heptalene], which IC50 is on record?
A: The IC50 was 328 nM.

Q: With `CCCCCCCCCC(=O)OCOC(=O)N1[C@@H]2CC[C@H]1[C@H]1COc3nc(-c4cc(O)cc5ccc(F)c(CC)c45)c(F)c4nc(OC[C@@]56CCCN5C[C@H](F)C6)nc(c34)N1C2` [Compound 45, (Decanoyloxy)methyl (5aS,6S,9R)-2-(8-ethyl-7-fluoro-3-hydroxynaphthalen-1-yl)-1-fluoro-12-(((2R,7aS)-2-fluorotetrahydro-1H-pyrrolizin-7a(5H)-yl)methoxy)-5a,6,7,8,9,10-hexahydro-5H-4-oxa-3,10a,11,13,14-pentaaza-6,9-methanonaphtho[1,8-ab]heptalene-14-carboxylate] as the compound, how does the IC50 read?
A: The IC50 was 3.5 nM.

Q: How did the IC50 turn out when `COc1ccc2cccc(-c3nc4c5c(nc(OC[C@@]67CCCN6C[C@H](F)C7)nc5c3F)N3C[C@@H]5CC[C@@H](N5)C3CO4)c2c1` (stereo partly drawn) [Compound 17, (6R,9S)-1-fluoro-12-(((2R,7As)-2-fluorotetrahydro-1H-pyrrolizin-7a(5H)-yl)methoxy)-2-(7-methoxynaphthalen-1-yl)-5a,6,7,8,9,10-hexahydro-5H-4-oxa-3,10a,11,13,14-pentaaza-6,9-methanonaphtho[1,8-ab]heptalene] was run?
A: The IC50 was 1000 nM.

Q: Which IC50 does the source give for `Fc1ccc2cccc(-c3nc4c5c(nc(OC[C@@]67CCCN6C[C@H](F)C7)nc5c3F)N3C[C@@H]5CC[C@@H](N5)C3CO4)c2c1` (stereo partly drawn) [Compound 16, (6R,9S)-1-fluoro-2-(7-fluoronaphthalen-1-yl)-12-(((2R,7aS)-2-fluorotetrahydro-1H-pyrrolizin-7a(5H)-yl)methoxy)-5a,6,7,8,9,10-hexahydro-5H-4-oxa-3,10a,11,13,14-pentaaza-6,9-methanonaphtho[1,8-ab]heptalene] here?
A: Its IC50 is 355 nM.

Q: `C#Cc1c(F)ccc2cccc(-c3nc4c5c(nc(OCC6(CN7CCOC[C@H]7C)CC6)nc5c3F)N3C[C@H]5CC[C@H](N5)[C@H]3CO4)c12` [Compound 42, (5aS)-2-(8-ethynyl-7-fluoronaphthalen-1-yl)-1-fluoro-12-((1-(((R)-3-methylmorpholino)methyl)cyclopropyl)methoxy)-5a,6,7,8,9,10-hexahydro-5H-4-oxa-3,10a,11,13,14-pentaaza-6,9-methanonaphtho[1,8-ab]heptalene] was tested. Which IC50 did it give?
A: Its IC50 is 159 nM.

Q: `Fc1cccc(-c2nc3c4c(nc(OC[C@@]56CCCN5C[C@H](F)C6)nc4c2F)N2C[C@@H]4CC[C@@H](N4)C2CO3)c1C1CC1` (stereo partly drawn) [Compound 21, (6R,9S)-2-(2-cyclopropyl-3-fluorophenyl)-1-fluoro-12-(((2R,7aS)-2-fluorotetrahydro-1H-pyrrolizin-7a(5H)-yl)methoxy)-5a,6,7,8,9,10-hexahydro-5H-4-oxa-3,10a,11,13,14-pentaaza-6,9-methanonaphtho[1,8-ab]heptalene] was tested. Which IC50 did it give?
A: The IC50 was 1230 nM.

Q: Which IC50 does the source give for `C#Cc1cccc2cc(O)cc(-c3nc4c5c(nc(OC[C@@]67CCCN6C[C@H](F)C7)nc5c3F)N3C[C@@H]5CC[C@@H](N5)C3CO4)c12` (stereo partly drawn) [Compound 5, 5-ethynyl-4-((6R,9S)-1-fluoro-12-(((2R,7aS)-2-fluorotetrahydro-1H-pyrrolizin-7a(5H)-yl)methoxy)-5a,6,7,8,9,10-hexahydro-5H-4-oxa-3,10a,11,13,14-pentaaza-6,9-methanonaphtho[1,8-ab]heptalen-2-yl)naphthalen-2-ol] here?
A: The IC50 was 77 nM.

Q: With `[2H]C#Cc1c(F)ccc2cccc(-c3nc4c5c(nc(OC[C@@]67CCCN6C[C@H](F)C7)nc5c3F)N3CC5CCC(N5)[C@H]3CO4)c12` (stereo in doubt) [Compound 34, (5aS,6R,9S)-2-(8-(ethynyl-d)-7-fluoronaphthalen-1-yl)-1-fluoro-12-(((2R,7aS)-2-fluorotetrahydro-1H-pyrrolizin-7a(5H)-yl)methoxy)-5a,6,7,8,9,10-hexahydro-5H-4-oxa-3,10a,11,13,14-pentaaza-6,9-methanonaphtho[1,8-ab]heptalene] as the compound, how does the IC50 read?
A: Its IC50 is 5 nM.

Q: Which IC50 does the source give for `Oc1cc(-c2nc3c4c(nc(OC[C@@]56CCCN5C[C@H](F)C6)nc4c2F)N2C[C@H]4CC[C@H](N4)[C@H]2CO3)c2c(Cl)cccc2c1` [Compound 27, 5-chloro-4-((5aS,6S,9R)-1-fluoro-12-(((2R,7aS)-2-fluorotetrahydro-1H-pyrrolizin-7a(5H)-yl)methoxy)-5a,6,7,8,9,10-hexahydro-5H-4-oxa-3,10a,11,13,14-pentaaza-6,9-methanonaphtho[1,8-ab]heptalen-2-yl)naphthalen-2-ol] here?
A: Its IC50 is 5 nM.

Q: Which IC50 does the source give for `C#Cc1cccc2cccc(-c3nc4c5c(nc(OC[C@@]67CCCN6C[C@H](F)C7)nc5c3F)N3C[C@@H]5CC[C@@H](N5)C3CO4)c12` (stereo partly drawn) [Compound 19, (6R,9S)-2-(8-ethynylnaphthalen-1-yl)-1-fluoro-12-(((2R,7aS)-2-fluorotetrahydro-1H-pyrrolizin-7a(5H)-yl)methoxy)-5a,6,7,8,9,10-hexahydro-5H-4-oxa-3,10a,11,13,14-pentaaza-6,9-methanonaphtho[1,8-ab]heptalene] here?
A: The IC50 was 29 nM.

Same assay, conditions: read-out: p-ERK IC50; PNAC-1/HPAC cell, 3 hours compound incubation

Q: With `C#Cc1c(F)ccc2cccc(-c3nc4c5c(nc(OCC67CCCN6C(COC(=O)N(C)C)CC7)nc5c3F)N3CC5CCC(N5)[C@H]3CO4)c12` (stereo in doubt) [Compound 38, (7a-((((5aS,6R,9S)-2-(8-ethynyl-7-fluoronaphthalen-1-yl)-1-fluoro-5a,6,7,8,9,10-hexahydro-5H-4-oxa-3,10a,11,13,14-pentaaza-6,9-methanonaphtho[1,8-ab]heptalen-12-yl)oxy)methyl)hexahydro-1H-pyrrolizin-3-yl)methyl dimethylcarbamate] as the compound, how does the IC50 read?
A: The IC50 was 70 nM.
